Experimental data published in article PMC7940618, “Specific inhibition of the Survivin–CRM1 interaction by peptide-modified molecular tweezers” (Nature Communications, 2021).

Key:
[1] = target: T1, Survivin–CRM1 complex (Homo sapiens, UniProt O15392); experiment: Pull-down with 293T lysate (Survivin142-HA), GST-CRM1 bait, RanQ69L, dGTP; type: binding; details: pull-down, tweezer 0.01 to 200 µM, 293T lysate
T1 construct: expressed in transfected cells; host or cells: 293T cells (Survivin142-HA); E. coli soluBL21 (GST-CRM1, RanQ69L)
Experimental: We next investigated whether tweezers inhibit the Survivin–CRM1 complex formation in vitro. The effects of the unmodified and peptide-linked tweezers were analyzed via pull-down experiments with 293T lysates containing overexpressed HA-tagged Survivin142, recombinant GST-CRM1 as bait protein, and tweezers (Fig. 6). The parent and ELTL-linked tweezer required 10–50 µM to disrupt the Survivin–CRM1 complex. […] In order to provide experimental evidence for the sequence selectivity of the TW-ELTLGEFL ligand, a scrambled analog was synthesized and clicked to the tweezer, resulting in the hybrid molecule TW-LFEEGLLT (SI1, SI2, and SI10). […] Instead, the slight chemical shift perturbations might be due to the spatial proximity of the peptide moiety to the anchoring residue. All those results strongly indicate that the additional binding energy from the NES interface was lost due to scrambling and thus point toward specific recognition as the reason for increased selectivity and interference with the Survivin–CRM1 interaction. Of note, very high tweezer concentrations (100–200 µM) also weakened GST-CRM1 binding to GSH-Sepharose beads, most likely by low-affinity binding to the GST protein.
All pull-down assays were performed at room temperature in pull-down buffer (PBS, pH 7.4, 1 mM DTT, 0.02 Triton X-100). GST fusion proteins were immobilized on 50 μL GSH-coated Sepharose 4B beads from GE Healthcare. The beads were prior equilibrated and blocked with 500 μL pull-down blocking buffer (PBS, pH 7.4, 1 (w/v) BSA, 1 mM DTT, 0.02 (v/v) Triton X-100) for 1 h to prevent unspecific binding.
For analysis of the effective inhibitory tweezer concentration, 200 μg 293T lysate with overexpressed Survivin142-HA was preincubated without ligand or with different concentrations (10 nM to 200 μM) of unmodified tweezer TW, TW-ELTL, TW-ELTLGEFL, or TW-LFEEGLLT for 1 h and then mixed with 35 μg GST-CRM1, 55 μg RanQ69L, and 2 mM dGTP. GSH-beads were incubated with this protein mixture for 2 h under rotation. […]
Samples of input and beads taken during pull-down experiments were ran on 12.5 SDS gels and transferred onto 0.2 µM PVDF membranes (Amersham Hybond P 0.2) using a PerfectBlue™ tank electro blotter (Peqlab) at 350 mA for 150 min. […] Chemiluminescence was detected and imaged using the Pierce ECL Plus Western Blotting Substrate kit (Thermo Fisher Scientific) and Chemidoc system (Bio-Rad) or film processor Cawomat 2000 IR (CAWO). Western blots were analyzed by densitometric analysis with ImageJ version 1.52p (U.S. National Institutes of Health), measuring the mean gray intensity of protein bands. […]

[2] = target: T2, Survivin120 (Homo sapiens, UniProt O15392); experiment: Reverse ITC titration (tweezer into Survivin120); type: binding; details: tweezer added to constant Survivin
T2 construct: the only published NMR structure originated from a truncated Survivin (aa 1-120) with improved solubility; GST with PreScission site (N); made in house; host or cells: Escherichia coli soluBL21
Experimental: ITC was performed with a MicroCal iTC200 from Malvern Panalytical in PBS, pH 7.4 at 25 °C with molecular tweezers in the cell and Survivin120 in the titration syringe. The protein was dialyzed overnight at 4 °C against the PBS buffer. Ligands were dissolved in the respective dialysis buffer. Then, 300 µM TW were titrated with 300 µM Survivin120 WT or 321 µM Survivin120 K90/103T. Then, 100 µM TW-ELTL, TW-ELTLGEFL, or TW-LFEEGLLT was titrated with 1.2 mM Survivin120 WT or 2.5 mM Survivin120 K90/103T. For reverse titrations, either 33.3 or 34.4 µM Survivin120 in the cell was titrated with 5 mM TW or TW-ELTL in the syringe, respectively. All titrations were performed in PBS, pH 7.4 at 25 °C. Then, 1.5 μL injections were used with 120 s spacing time between injections. The injection rate was set to 0.5 µL/s and the reference power was 5 µcal/s. ITC thermograms were fitted to a one set of sites model with the software Origin (v7.0552) provided with the instrument. Heat of dilution was subtracted as constant from each data point.
Supplementary Figure SI8: Reverse ITC titrations. Titration of 33.3 μM (a) and 34,4 µM (b) Survivin120 in the cell with 5 mM unmodified tweezer TW (a) and TW-ELTL (b) in the syringe.
All titrations (n = 1) were performed in PBS, pH 7.4 at 25 °C. Top row: raw heating power over time subtracted by control heating power of Survivin120 titration into PBS. […]

[3] = set-up: method as in PMID 23750919; details: read-out: KD, affinity toward lysine; cited from earlier work

T1 sequence (O15392 whole entry, one chain of several): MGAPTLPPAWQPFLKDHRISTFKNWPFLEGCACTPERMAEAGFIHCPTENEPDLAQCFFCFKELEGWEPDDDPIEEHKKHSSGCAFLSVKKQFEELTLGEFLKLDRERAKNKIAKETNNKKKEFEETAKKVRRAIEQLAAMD
T2 sequence (O15392 1-120): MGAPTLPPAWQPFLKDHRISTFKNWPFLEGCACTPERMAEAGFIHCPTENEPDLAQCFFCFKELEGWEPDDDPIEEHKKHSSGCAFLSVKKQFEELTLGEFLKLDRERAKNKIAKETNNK

Row | Compound | concentration required to disrupt the Survivin–CRM1 complex [1] | tweezer molecules accommodated on the protein surface (kink at fold tweezer excess) [2] | Kd [3]
1 | O=P(O)(O)Oc1c2c(c(OP(=O)(O)O)c3c1C1CC3c3cc4c(cc31)C1CC4c3ccccc31)C1CC2c2cc3c(cc21)C1CC3c2ccccc21 [TW, reference compound] | 10 to 50 µM | 4–5 | 17 µM
2 | CC(C)C[C@H](NC(=O)[C@@H](NC(=O)[C@H](CC(C)C)NC(=O)[C@H](CCC(=O)O)NC(=O)Cn1cc(CCOP(=O)(O)Oc2c3c(c(OP(=O)(O)O)c4c2[C@H]2C[C@@H]4c4cc5c(cc42)[C@H]2C[C@@H]5c4ccccc42)[C@H]2C[C@@H]3c3cc4c(cc32)[C@H]2C[C@@H]4c3ccccc32)nn1)[C@@H](C)O)C(=O)O [TW-ELTL] | 10 to 50 µM | 4–5 | –
